From the supplement of paper PMC10307832

Columns and labels:
[1] = compound: Cc1ccc(C(=O)Nc2ccc(CN3CCN(C)CC3)c(C(F)(F)F)c2)cc1C#Cc1cnc2cccnn12 [Ponatinib]; experiment: relative viability (nuclei count vs DMSO), 5 days (fraction); higher = more cells survive
Summary of the method: (§1)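 Hoechst staining, done together with fixation and permeabilisation, marked nuclei for 4× imaging and MetaXpress counting. This followed 5 days without medium change after lung cancer cell lines, kept overnight at 37 °C in 1536-well plates, were pinned with five library-drug doses (not always all listed) spaced by √10 on vehicle-anchored plates. Viability is the ratio of treated-well to vehicle-well nuclei, expressed as a median across plates. Plates passed only at control CV below 25% with at least one doubling.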

[2] = compound: Cc1ccc(Nc2nccc(N(C)c3ccc4c(C)n(C)nc4c3)n2)cc1S(N)(=O)=O [Pazopanib]; experiment: as above
Summary of the method: as §1

Cell Line	relative viability ([1]; 0.002 µM)	relative viability ([1]; 0.006325 µM)	relative viability ([1]; 0.06325 µM)	relative viability ([1]; 0.2 µM)	relative viability ([2]; 0.03162 µM)	relative viability ([2]; 0.1 µM)	relative viability ([2]; 0.3162 µM)	relative viability ([2]; 1 µM)	relative viability ([2]; 0.01 µM)
NCI-H1792	0.887	0.836	1.12	0.838	0.911	0.832	1.12	0.956	
NCI-H1793	0.959	0.914	0.89	0.715	0.875	0.856	0.961	1.16	
NCI-H1915	0.906	1	0.986	0.971	1.02	0.995	0.961	0.894	0.915
NCI-H1944	0.828	1.01	0.957	1	0.965	1.06	0.981	1.01	0.739
NCI-H1975	0.831	0.918	0.948	0.844	0.895	0.993	0.944	1.03	0.889
NCI-H1993	1.02	1.03	1.2	1.05	0.791	0.936	0.983	0.86	
NCI-H2009	0.95	0.944	1.07	1.03	1.04	0.937	1.02	0.891	0.989
NCI-H2023	0.821	0.95	1.1	0.846	1	0.989	0.974	1.22	0.856
NCI-H2085	1.01	0.997	1.19	1.06	1.04	0.966	1.01	1.02	0.973
NCI-H2087	0.877	0.782	0.928	0.974	1.06	1.07	1.09	0.908	1.02
NCI-H2126	0.959	1.04	1.14	1.04	0.903	1.02	0.991	0.996	0.91
NCI-H2170	0.927	0.969	1	0.917	1.02	0.948	0.899	0.995	0.828
NCI-H2228	0.828	0.991	1.07	0.895	1	1.03	0.973	1.04	0.964
NCI-H2342	0.958	0.946	1.01	0.999	0.945	0.957	0.883	0.852	0.687
NCI-H2347	0.977	1	1.19	0.977	1	0.98	1.05	1.04	0.932
NCI-H2405	0.935	1.06	1.02	0.847	0.998	1.01	1.04	1.1	0.895
NCI-H3122	0.979	0.997	1.02	1.02	0.997	1.01	1.06	1.05	1.04
PC-3 [JPC-3]	0.932	1.05	1.15	1.03	1.05	1.09	1.02	1.01	1.13
PC-14	0.887	0.984	1.16	0.993	1.07	1.06	1.1	1.11	1.06
